Values quoted from earlier work, collected in patent publication US20250127175A1, “ANTIMICROBIAL POLYMER COMPOSITIONS, ANTIMICROBIAL POLYMER ARTICLES, AND METHODS OF MAKING THE SAME” (CORNING INCORPORATED, priority 2021, published 2025).

Conditions: water-soluble defined as minimum of 20 grams in 100 milliliters of water at 25° C.

CCCCn1cc[n+](C)c1.F[P-](F)(F)(F)(F)F [1-butyl-3-methylimidazolium hexafluorophosphate]
water solubility (in words): water insoluble
